Laboratory results as given in patent publication US9068958B1, “Use of surface free energy for differential evaluation of crystal, crystal evaluated on basis of surface free energy as index, and pharmaceutical composition prepared by containing the crystal” (POLA PHARMA INC., priority 2012, dated 2015).

What was measured:
[1] = Storage testing under severely stressed condition of crystals suspended in water, isomer formation by HPLC; assay type: physicochemical; conditions: light 6000 1×, 80° C., 6 hours, ratio to charging amount of luliconazole
Experimental: The storage testing under severely stressed condition was performed for Crystals 1 to 4. That is, each of the samples was suspended in water (infiltration condition or humidified condition), which was exposed to light at 6000 1× at 80° C. for 6 hours, followed by being collected by filtration and dried. After that, the ratio of the Z isomer of luliconazole with respect to the charging amount of luliconazole was measured and calculated. The measurement was performed by means of HPLC. The HPLC condition was as follows.
Column: CHIRALCEL OD-RH 4.6×150 mm, column temperature: 35° C., mobile phase: mixture solution of methanol/1.8% aqueous solution of potassium hexafluorophosphate (83:17, v/v), flow rate: 0.56 mL/min., detection: 295 nm.
As for the SE isomer, the storage testing under severely stressed testing was performed for the crystal in the same manner as the Z isomer. As a result, any difference was not observed in relation to the amount of formation depending on the difference in the crystal. That is, the tendency of the SE isomer was not observed for the crystal itself.

[2] = Surface free energy of crystal by liquid penetration rate measurement (contact angle, Owens-Wendt-Rabel-Kaelble method); assay type: physicochemical; conditions: crystal powder; for γS^d, dispersion component of surface free energy / γS^p, polar component of surface free energy: solvents n-hexane, tetrachloromethane, benzene, 1-nitropropane, water; for γS, surface free energy: sum of dispersion and polar component
Experimental: The measurement of the surface free energy of the crystal may be performed in accordance with an ordinary method. For example, the contact angle with respect to the crystal is measured by means of the liquid penetration (permeation) rate measurement (machine type of apparatus: Processor Tensiometer K12, manufacturer: KRUSS GmbH) by using several solvents for which the surface free energy, the dispersion component of the surface free energy, and the polar component of the surface free energy are already known, and thus it is possible to perform the calculation therefrom by applying the model of Owens, Wendt, Rabel, and Kaelble. Preferred solvents for measurement in this method can be appropriately exemplified, for example, by n-hexane, […], benzene, nitrobenzene, 1-nitropropane, and water. As for the method as described above, it is possible to make reference, for example, to a method described in Japanese Patent Application Laid-open No. 2010-183064.
In relation to the surface free energy, the contact angle θ is calculated in accordance with the Washburn's equation from the penetration (permeation) rate of liquid into powder obtained by the liquid penetration (permeation) rate measurement (machine type of apparatus: Processor Tensiometer K12, manufacturer: KRUSS GmbH). The penetration (permeation) rate of the liquid in the chamber into the powder is measured by using a chamber tube shown in FIG. 4. […] Washburn's equation is represented by the following equation 1.
If this equation is converted into the weight of the solvent permeated into the powder per unit time, the following equation 2 is presented.
The contact angle θ is determined by measuring the penetration (permeation) rate by using a solvent for which the surface tension (γL), the density (ρ), and the viscosity (η) of the liquid are known. The polar component and the dispersion component of the surface free energy are calculated in accordance with the Owens-Wendt-Rabel-Kaelble method by using θ thus determined. That is, assuming that the surface free energy is composed of the non-polar dispersion component γ^d and the polar component γ^p, the following equations are presented. γS=γS^d+γS^p γL=γLd+γLp γSL=γS+γL−2√{square root over (yS^d·γL^d)}−2√{square root over (γS^p·γL^p)} Equation 3
If Young's equation, which holds among the surface tension of the liquid, the surface tension of the solid, and the solid-liquid interfacial tension, is substituted with the above, the following equation is obtained.
The contact angle θ is determined, and plotted by using several types of solvents having known γL, γL^d, γL^p, and thus it is possible to determine γS^p from the slope and γs^d from the intercept. n-Hexane, tetrachloromethane, benzene, 1-nitropropane, and water were used as the known solvents.
By utilizing the above, the surface free energy, the dispersion component of the surface free energy, the polar component of the surface free energy, and the ratio (%) of the polar component with respect to the surface free energy were calculated for samples (specimens) manufactured by the following methods.

## N#C/C(=C1/SC[C@@H](c2ccc(Cl)cc2Cl)S1)n1ccnc1 [Crystal 2, Luliconazole]
[1]; listed as 2
  Amount of formation of Z isomer (%) under condition of suspension in water and exposure to light: 0.08%
[2]; listed as 2
  γS^p/γS, ratio of polar component of surface free energy: 29%
  γS^d, dispersion component of surface free energy: 19.5 mJ/m^2
  γS^p, polar component of surface free energy: 7.9 mJ/m^2
  γS, surface free energy: 27.4 mJ/m^2

## N#C/C(=C1/SC[C@@H](c2ccc(Cl)cc2Cl)S1)n1ccnc1 [Crystal 4, Luliconazole]
[1]; listed as 4
  Amount of formation of Z isomer (%) under condition of suspension in water and exposure to light: 0.07%
[2]; listed as 4
  γS^p/γS, ratio of polar component of surface free energy: 20%
  γS^d, dispersion component of surface free energy: 20.3 mJ/m^2
  γS^p, polar component of surface free energy: 5.2 mJ/m^2
  γS, surface free energy: 25.5 mJ/m^2

## N#C/C(=C1/SC[C@@H](c2ccc(Cl)cc2Cl)S1)n1ccnc1 [Crystal 3, Luliconazole]
[1]; listed as 3
  Amount of formation of Z isomer (%) under condition of suspension in water and exposure to light: 0.07%
[2]; listed as 3
  γS^p/γS, ratio of polar component of surface free energy: 31%
  γS^d, dispersion component of surface free energy: 18.4 mJ/m^2
  γS^p, polar component of surface free energy: 8.2 mJ/m^2
  γS, surface free energy: 26.6 mJ/m^2

## N#C/C(=C1/SC[C@@H](c2ccc(Cl)cc2Cl)S1)n1ccnc1 [Crystal 1, Luliconazole]
[1]; listed as 1
  Amount of formation of Z isomer (%) under condition of suspension in water and exposure to light: 0.11%
[2]; listed as 1
  γS^p/γS, ratio of polar component of surface free energy: 44%
  γS^d, dispersion component of surface free energy: 16.1 mJ/m^2
  γS^p, polar component of surface free energy: 12.7 mJ/m^2
  γS, surface free energy: 28.8 mJ/m^2
